Data from PubChem BioAssay (NCI).
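Cells were grown in 96-well plates and exposed to each compound for 48 hours at five concentrations; endpoints were interpolated linearly between bracketing concentrations, or set to the highest concentration if not reached. The concentration for 50% growth inhibition is given as GI50. Definition used: TGI = concentration required for complete inhibition of growth.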

What was measured:
Assay in all cases: NCI-60 cell line screen, 48 h
786-0 renal = system: 786-0 renal
A549 NSCLC = system: A549 NSCLC
BT-549 breast = system: BT-549 breast
COLO 205 colon = system: COLO 205 colon
HT29 colon = system: HT29 colon
MCF7 breast = system: MCF7 breast
MDA-MB-231 breast = system: MDA-MB-231 breast
MDA-MB-435 = system: MDA-MB-435
NCI-H23 lung = system: NCI-H23 lung
SN12C renal = system: SN12C renal
TK-10 renal = system: TK-10 renal
CCRF-CEM leukemia = system: CCRF-CEM leukemia

Row | Structure (SMILES) | TGI (786-0 renal) | TGI (A549 NSCLC) | TGI (BT-549 breast) | TGI (COLO 205 colon) | TGI (HT29 colon) | TGI (MCF7 breast) | TGI (MDA-MB-231 breast) | TGI (MDA-MB-435) | TGI (NCI-H23 lung) | TGI (SN12C renal) | TGI (TK-10 renal) | TGI (CCRF-CEM leukemia) | GI50 (A549 NSCLC) | GI50 (CCRF-CEM leukemia) | GI50 (HT29 colon) | GI50 (NCI-H23 lung)
1 | c1cc2cc(c1)CN1CCNCCN(CCNCC1)Cc1cccc(c1)CN1CCNCCN(CCNCC1)C2 | > 100 µM | > 100 µM | > 100 µM | > 100 µM | > 100 µM | > 100 µM | > 100 µM | > 100 µM | > 100 µM | > 100 µM | > 100 µM |  |  |  |  | 
2 | O=C(O)C(Cc1cnc[nH]1)N=Cc1nc(-c2ccccc2)oc1O (stereo unspecified) | > 100 µM | > 100 µM |  | > 100 µM | > 100 µM |  |  |  | > 100 µM | > 100 µM | > 100 µM | > 100 µM |  |  |  | 
3 | CCN(CC)c1nc(N(C)C)c2ccc(OC)cc2n1 | 89.3 µM | > 100 µM | 64.8 µM | 21.6 µM | 26.1 µM | 25 µM | 75.8 µM | 24.6 µM | > 100 µM | 48.7 µM | > 100 µM |  |  |  |  | 
4 | c1ccc(/N=N\Nc2ccc(-c3nc4ccccc4o3)cc2)nc1 | > 100 µM | > 100 µM | > 100 µM | 49.2 µM | > 100 µM | > 100 µM | > 100 µM | > 100 µM | > 100 µM | > 100 µM | > 100 µM |  |  |  |  | 
5 | c1ccc(SC(Sc2ccccc2)c2ccc3c(c2)OCO3)cc1 | > 100 µM | > 100 µM | > 100 µM |  | > 100 µM |  | > 100 µM | > 100 µM | > 100 µM | > 100 µM | > 100 µM | > 100 µM |  |  |  | 
6 | CC1C2(C)OC(=N)C(C#N)(C(c3ccco3)O2)C1(C#N)C#N (stereo unspecified) | 49.5 µM | > 100 µM | > 100 µM | 27.7 µM | > 100 µM | 51.4 µM | 39.5 µM |  | 93.6 µM | 30.4 µM | > 100 µM | 84.4 µM |  |  |  | 
7 | CCCN1CN(c2ccccc2)C2(CCN(CCCC(=O)c3ccc(F)cc3)CC2)C1=O | 17.3 µM | 29.8 µM |  | 0.348 µM | 7.02 µM | 11.9 µM | 18.1 µM | 23.5 µM | 17.3 µM | 15.5 µM | 22.4 µM | 5.16 µM |  |  |  | 
8 | Cc1ccc(S(=O)C[C@@]2(C(F)F)NC(=O)NC2=O)cc1 (stereo partly specified) | > 100 µM | > 100 µM | > 100 µM | > 100 µM | > 100 µM |  | > 100 µM | > 100 µM | > 100 µM |  | > 100 µM | > 100 µM |  |  |  | 
9 | COc1cc(CNC(=O)[C@H](Cc2ccc(O)cn2)NC(C)=O)cc(OC)c1 | > 100 µM | > 100 µM | > 100 µM | > 100 µM | > 100 µM | > 100 µM |  | > 100 µM | > 100 µM | > 100 µM | > 100 µM | > 100 µM |  |  |  | 
10 | O=C(N1CCC(CN=c2cc3n(-c4ccc(Cl)cc4)c4ccccc4nc-3cc2Nc2ccc(Cl)cc2)CC1)N1CC1 |  | 11.7 µM |  |  | 0.547 µM |  |  |  | 3.23 µM |  |  | 1.15 µM | 0.71 µM | 0.253 µM | 0.204 µM | 1.65 µM
11 | C[C@@H]1OC(=O)C[C@H]2CC(=O)N(CCC3CN(S(=O)(=O)C(F)(F)F)c4ccc(Cc5ccc6c(c5)C(CCN5C[C@H]7[C@@H](CC(=O)O[C@H]7C)CC5=O)CN6S(=O)(=O)C(F)(F)F)cc43)C[C@@H]21 (stereo partly specified) | > 100 µM | > 100 µM | > 100 µM | > 100 µM |  | > 100 µM | > 100 µM | > 100 µM | > 100 µM |  | > 100 µM | > 100 µM |  |  |  | 
12 | NC(CCCNc1cccc(O)c1)C(=O)O (stereo unspecified) | > 100 µM | > 100 µM |  | > 100 µM | > 100 µM |  |  |  |  | > 100 µM | > 100 µM | > 100 µM |  |  |  | 
13 | O/N=C1/CCCCCC1NO (stereo unspecified) | > 100 µM | > 100 µM |  | > 100 µM | > 100 µM | > 100 µM | > 100 µM | > 100 µM | > 100 µM | > 100 µM | > 100 µM |  |  |  |  | 
14 | COc1cc(S(=O)(=O)Nc2ccc(-c3csc(N4C(=O)C(C)SC4c4ccccc4O)n3)cc2)ccc1Cl (stereo unspecified) | > 100 µM | > 100 µM | > 100 µM | 57 µM | > 100 µM | > 100 µM |  | > 100 µM | > 100 µM | > 100 µM |  | > 100 µM |  |  |  | 
15 | C=CCOC(=O)CCCCCCCCCCCCCCCOC(=O)c1c(CCC[C@@H](C)O[Si](C)(C)C(C)(C)C)nc(=O)n2c1CC[C@H]2CC1(CC/C=C\[C@H](CC)O[Si](C(C)C)(C(C)C)C(C)C)OCCO1 | 77.2 µM | > 100 µM | > 100 µM | > 100 µM |  | > 100 µM | 54.3 µM | > 100 µM | > 100 µM | > 100 µM | > 100 µM | > 100 µM |  |  |  | 
16 | CC(=O)[O-].CC(=O)[O-].O=C(N/N=C/c1cc(Cl)cc(Cl)c1[OH2+])c1ccncc1.[Zn+2] | > 100 µM | > 100 µM |  | > 100 µM |  |  |  |  | > 100 µM | > 100 µM | > 100 µM | > 100 µM |  |  |  | 
17 | Cn1c(=O)c2c(ncn2CCSS(=O)(=O)O)n(C)c1=O | > 100 µM | > 100 µM | > 100 µM | > 100 µM | > 100 µM | > 100 µM | > 100 µM | > 100 µM | > 100 µM | > 100 µM | > 100 µM |  |  |  |  | 
18 | CCCC(=O)/C=C/S/C=C/C(=O)CCC | 4.98 µM | > 100 µM |  |  | > 100 µM | > 100 µM | 23.8 µM | 18.6 µM | 7.7 µM | 28 µM | 14.5 µM |  |  |  |  | 
19 | O=C1c2ccccc2C(=O)C2C3c4ccccc4C(c4ccccc43)C12 (stereo unspecified) | 18.9 µM | > 100 µM |  | > 100 µM | 79.4 µM |  |  |  | > 100 µM | 61.5 µM | 63.3 µM | 26 µM |  |  |  | 
20 | O=C(Nc1ccccc1)Nn1c(-c2cccs2)nc2ccc(I)cc2c1=O | > 100 µM | 49.4 µM | 39 µM | 53.4 µM | 84.7 µM | 87.7 µM |  | 43.3 µM | > 100 µM | > 100 µM | 60.6 µM | 60.8 µM |  |  |  | 
